Reference: patent US11306064B2, “Benzothia(di)azepine compounds and their use as bile acid modulators” (Albireo AB, priority 2018, dated 2022)

What was measured:
Assay type in all cases: cell-based
Human LBAT = target: T1, Human LBAT (Homo sapiens, UniProt Q14973); test: LBAT (h/m) assay: 3H-taurocholic acid uptake in human LBAT-overexpressing cells; settings: 0.3 μM 3H-taurocholic acid and 7.5 μM cold taurocholic acid, 20 minutes, read-out: hLBAT IC50
T1 construct: expressed in transfected cells; kept under Geneticin selection
T1 sequence (Q14973 1-349): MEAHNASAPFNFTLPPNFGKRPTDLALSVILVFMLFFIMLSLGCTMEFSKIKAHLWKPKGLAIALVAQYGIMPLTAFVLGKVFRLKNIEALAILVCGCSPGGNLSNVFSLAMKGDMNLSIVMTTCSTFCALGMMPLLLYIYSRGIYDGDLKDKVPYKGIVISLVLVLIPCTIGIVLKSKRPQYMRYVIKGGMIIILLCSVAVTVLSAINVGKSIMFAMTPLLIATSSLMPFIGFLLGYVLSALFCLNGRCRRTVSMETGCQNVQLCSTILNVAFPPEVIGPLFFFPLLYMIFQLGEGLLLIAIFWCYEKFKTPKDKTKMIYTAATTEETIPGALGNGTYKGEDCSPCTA
In short: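 LBAT-overexpressing cells, serum-free MEM-alpha, 20 min at 37° C with inhibitor (3-fold, 10-point) plus 0.3 μM 3H-taurocholic acid and cold taurocholic acid (7.5 μM human; 25 μM mouse), 0.2% DMSO. Stopped on ice, washed with 1 mM unlabelled taurocholate; uptake by scintillation counting.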

Human ASBT = target: T2, Human ASBT (Homo sapiens, UniProt Q12908); test: ASBT (h/m) assay: 3H-taurocholic acid uptake in human ASBT-overexpressing cells; settings: 0.25 μM 3H-taurocholic acid and 5 μM cold taurocholic acid, 20 minutes, read-out: hASBT IC50
T2 construct: expressed in transfected cells; kept under Puromycin selection
T2 sequence (Q12908 1-348): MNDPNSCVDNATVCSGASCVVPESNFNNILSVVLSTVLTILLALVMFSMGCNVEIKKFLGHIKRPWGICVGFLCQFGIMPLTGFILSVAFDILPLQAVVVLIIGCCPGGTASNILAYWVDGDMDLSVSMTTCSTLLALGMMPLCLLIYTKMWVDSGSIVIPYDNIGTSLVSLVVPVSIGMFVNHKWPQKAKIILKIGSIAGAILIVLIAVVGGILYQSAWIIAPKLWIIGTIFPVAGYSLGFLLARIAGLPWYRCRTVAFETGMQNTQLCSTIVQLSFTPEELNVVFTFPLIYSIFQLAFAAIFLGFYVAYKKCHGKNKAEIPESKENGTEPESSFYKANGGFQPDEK
In short: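 ASBT-overexpressing cells, seeded 48 h earlier, took up 0.25 µM 3H-taurocholic acid plus 5 µM cold taurocholate for 20 min at 37 °C with inhibitor (10-point 3-fold series, top 10 µM, 0.2% DMSO). Ice stop, washes with cold 1 mM taurocholate in HEPES-HBSS pH 7.4, scintillation counting.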

HepaRG cells = test: HepaRG-based assay: 3H-taurocholic acid uptake in differentiated HepaRG cells; settings: Homo sapiens, HepaRG, 0.3 μM 3H-taurocholic acid and 7.5 μM cold taurocholic acid, 30 minutes
Description: HepaRG-Based Assay Protocol
A cryopreserved vial of differentiated HepaRG cells (Biopredic International HPR116080) was thawed in HepaRG Thawing/Plating/General Purpose Medium (Biopredic International ADD670C) supplemented with 200 mM Glutamax (Gibco 35050061) following the protocol provided by Biopredic International. 70,000 cells per well were seeded in 96-wells plate (Corning CLS3809) in 100 μL of HepaRG Thawing/Plating/General Purpose Medium supplemented with 200 mM Glutamax and incubated at 37° C. in 5% CO2 for 24 hours. Post incubation, the seeding media was replaced by HepaRG Maintenance/Metabolism Medium (Biopredic International ADD620C) and incubated for 6 days, with fresh HepaRG Maintenance/Metabolism Medium replenishment every 48 hours. After 7 days incubation post seeding, incubation media was decanted from the wells and cells were washed two times with 250 μL of William's E Basal Media (Gibco 12551032). After decanting William's E Basal Media each time, plates were tapped against paper towel to ensure maximum removal of residual media.
Incubation mix was prepared by adding test inhibitor dilutions (3-fold serial dilution in DMSO (Sigma D2650)) in William's E media (basal) containing 0.3 μM 3H-taurocholic acid (ARC ART-1368) and 7.5 μM cold taurocholic acid (Sigma T4009) (maintaining 0.2% final DMSO concentration). 50 μl of incubation mix containing test inhibitors was then added to the wells (in duplicate) and the plates were incubated for 30 minutes in 5% CO2 incubator at 37° C. After incubation, the reaction was stopped by keeping the plates on ice water mix for 2-3 minutes and then the incubation mix was aspirated completely from the wells. The wells were washed two times with 250 μL of chilled unlabelled 1 mM taurocholic acid dissolved in HEPES (Gibco 15630080)-buffered (10 mM) HBSS (Gibco 14175079) (pH 7.4). The plates were tapped against a paper towel after every wash to ensure maximum removal of blocking buffer.
100 μL of MicroScint-20 (PerkinElmer 6013621) was added to the wells and kept overnight at room temperature before reading the plates in TopCount NXT™ Microplate Scintillation and Luminescence Counter from PerkinElmer under 3H Test protocol (set at 120 seconds reading time per well, with normal plate orientation).
Preparation of Test Compound Dilutions
All test compounds were provided in powder form at room temperature. 10 mM DMSO stocks of the test compounds were prepared, aliquoted and stored at −20° C. From the 10 mM DMSO stock of the compounds, a 3-fold serial dilution in DMSO was prepared to get a total of 10 dilutions of the test compounds. 0.5 μL of this dilution in DMSO was added to 250 μL of FBS-free basal media containing 3H-taurocholic acid and cold taurocholic acid to prepare the incubation mixture.

SMILES	IC50 (Human LBAT)	IC50 (Human ASBT)	IC50 (HepaRG cells)
CCCCC1(CCCC)CN(c2ccc(NC(=O)C(C)(C)C)cc2)c2cc(SC)c(O/C=C/C(=O)O)cc2S(=O)(=O)C1 [Example 27, (E)-3-((3,3-dibutyl-7-(methylthio)-1,1-dioxido-5-(4-pivalamidophenyl)-2,3,4,5-tetrahydro-1,5-benzothiazepin-8-yl)oxy)acrylic Acid]	46 nM	4800 nM	350 nM
CCC1(CC)CN(c2ccccc2)c2cc(Br)c(O/C=C(\F)C(=O)O)cc2S(=O)(=O)C1 [Example 56, (Z)-3-((7-bromo-3,3-diethyl-1,1-dioxido-5-phenyl-2,3,4,5-tetrahydro-1,5-benzothiazepin-8-yl)oxy)-2-fluoroacrylic Acid]	37 nM	380 nM	175 nM
CCCC[C@@]1(CC)CN(c2ccccc2)c2cc(N(C)C)c(O/C=C(\F)C(=O)O)cc2S(=O)(=O)C1 (single isomer, unassigned) [Example 109]	68 nM	6.5 nM	> 2220 nM
CCCCC1(CC)CN(c2ccccc2)c2cc(SC)c(O/C=C(\F)C(=O)O)cc2S(=O)(=O)N1C (racemic) [Example 98, (Z)-3-((3-butyl-3-ethyl-2-methyl-7-(methylthio)-1,1-dioxido-5-phenyl-2,3,4,5-tetrahydro-1,2,5-benzothiadiazepin-8-yl)oxy)-2-fluoroacrylic Acid]	22 nM	286 nM	671 nM
CCCCC1(CCCC)CN(c2ccccc2)c2ccc(O/C=C(\F)C(=O)O)cc2S(=O)(=O)C1 [Example 45, (Z)-3-((3,3-dibutyl-1,1-dioxido-5-phenyl-2,3,4,5-tetrahydro-1,5-benzothiazepin-8-yl)oxy)-2-fluoroacrylic Acid]	201 nM	1460 nM	3160 nM
CCCCC1(CC)CN(c2ccccc2)c2cc(OC)c(O/C=C/C(=O)O)cc2S(=O)(=O)C1 (stereo not drawn) [Example 13, (E)-3-((3-butyl-3-ethyl-7-methoxy-1,1-dioxido-5-phenyl-2,3,4,5-tetrahydro-1,5-benzothiazepin-8-yl)oxy)acrylic Acid]	991 nM	144 nM	4460 nM
CCCCC1(CCCC)CN(c2ccc(NC(=O)CCC)cc2)c2cc(SC)c(O/C=C/C(=O)O)cc2S(=O)(=O)C1 [Example 40, (E)-3-((3,3-dibutyl-5-(4-butyramidophenyl)-7-(methylthio)-1,1-dioxido-2,3,4,5-tetrahydro-1,5-benzothiazepin-8-yl)oxy)acrylic Acid]	108 nM	4550 nM	1510 nM
CCC1(CC)CN(c2ccccc2)c2cc(I)c(O/C=C/C(=O)O)cc2S(=O)(=O)C1 [Example 54, (E)-3-((3,3-diethyl-7-iodo-1,1-dioxido-5-phenyl-2,3,4,5-tetrahydro-1,5-benzothiazepin-8-yl)oxy)acrylic Acid]	100 nM	186 nM	260 nM
CCCCC1(CCCC)CN(c2ccc(NC(=O)OC(C)(C)C)cc2)c2cc(SC)c(O/C=C/C(=O)O)cc2S(=O)(=O)C1 [Example 3, (E)-3-((5-(4-((tert-butoxycarbonyl)amino)phenyl)-3,3-dibutyl-7-(methylthio)-1,1-dioxido-2,3,4,5-tetrahydro-1,5-benzothiazepin-8-yl)oxy)acrylic Acid]	177 nM	> 10000 nM	885 nM
CCCCC1(CCCC)CN(c2ccc(C(=O)NC(C)(C)C)cc2)c2cc(SC)c(O/C=C/C(=O)O)cc2S(=O)(=O)C1 [Example 68, (E)-3-((3,3-dibutyl-5-(4-(tert-butylcarbamoyl)phenyl)-7-(methylthio)-1,1-dioxido-2,3,4,5-tetrahydro-1,5-benzothiazepin-8-yl)oxy)acrylic Acid]	130 nM	6670 nM	344 nM
CCCCC1(CCCC)CN(c2ccc(NS(=O)(=O)C3CC3)cc2)c2cc(SC)c(O/C=C/C(=O)O)cc2S(=O)(=O)C1 [Example 9, (E)-3-((3,3-dibutyl-5-(4-(cyclopropanesulfonamido)phenyl)-7-(methylthio)-1,1-dioxido-2,3,4,5-tetrahydro-1,5-benzothiazepin-8-yl)oxy)acrylic Acid]	1090 nM	1200 nM	3080 nM
CCCC[C@]1(CC)CN(c2ccccc2)c2cc(SC)c(O/C=C(\F)C(=O)O)cc2S(=O)(=O)N1C (single isomer, unassigned) [Example 100]	49 nM	631 nM	1450 nM
CCCCC1(CCCC)CN(c2ccc(NC(=O)C3CCCC3)cc2)c2cc(SC)c(O/C=C/C(=O)O)cc2S(=O)(=O)C1 [Example 37, (E)-3-((3,3-dibutyl-5-(4-(cyclopentanecarboxamido)phenyl)-7-(methylthio)-1,1-dioxido-2,3,4,5-tetrahydro-1,5-benzothiazepin-8-yl)oxy)acrylic Acid]	45 nM	2000 nM	592 nM
CCCCC1(CC)CN(c2ccccc2)c2cc(I)c(O/C=C/C(=O)O)cc2S(=O)(=O)C1 (single isomer, unassigned) [Example 57, (E)-3-((3-butyl-3-ethyl-7-iodo-1,1-dioxido-5-phenyl-2,3,4,5-tetrahydro-1,5-benzothiazepin-8-yl)oxy)acrylic acid]	137 nM	361 nM	1160 nM
CCCCC1(CCCC)CN(c2ccc(O)cc2)c2cc(SC)c(O/C=C(\F)C(=O)O)cc2S(=O)(=O)C1 [Example 95, (Z)-3-((3,3-dibutyl-5-(4-hydroxyphenyl)-7-(methylthio)-1,1-dioxido-2,3,4,5-tetrahydro-1,5-benzothiazepin-8-yl)oxy)-2-fluoroacrylic Acid]	77 nM	17 nM	1220 nM
CCCC[C@]1(CC)CN(c2ccccc2)c2cc(Br)c(O/C=C(\F)C(=O)O)cc2S(=O)(=O)C1 (single isomer, unassigned) [Example 64]	28 nM	524 nM	455 nM
CCCCC1(CC)CN(c2ccccc2)c2cc(SC)c(O/C=C(\F)C(=O)O)cc2S(=O)(=O)N1 (racemic) [Example 84, (Z)-3-((3-butyl-3-ethyl-7-(methylthio)-1,1-dioxido-5-phenyl-2,3,4,5-tetrahydro-1,2,5-benzothiadiazepin-8-yl)oxy)-2-fluoroacrylic Acid]	31 nM	28 nM	559 nM
CCCC[C@]1(CC)CN(c2ccccc2)c2cc(SC)c(O/C=C(\F)C(=O)O)cc2S(=O)(=O)N1 (single isomer, unassigned) [Example 86]	31 nM	88 nM	527 nM
